Marks after values point to notes of the source that are not given here.
How the values were obtained:
ICR mice = test: in vivo; settings: female ICR mice; single-dose ip
Method: This experiment was to investigate the toxic effects of single-dose intraperitoneal administration on ICR mice and determine the maximum tolerated dose (MTD) of each subject. Maximum tolerated dose (MTD) refers to the dose that may not cause an animal to die, may not cause the animal to suffer weight loss exceeding 10% (compared with Day 0), or may not produce significant side effects.
The corresponding amount of test substance was taken in a 5 mL glass tube and dissolved in ethanol with a 5 mm magnetic stirrer for stirring. After dissolving completely, Cremophor EL was added with continuous stirring. The marked amount of saline was added and mixed evenly before use. The volume ratio of ethanol, Cremophor EL, and physiological saline was 5:5:90.
Varieties and lines: ICR mice; level: SPF; sex: female.
Method of administration: ip. The dose was reduced in case of animal death, till an animal survived; the dose was increased in case of no animal death; the test was ended when the animals survived normally at the given high dose. Finally, the MTD of the mice on the test substances was determined according to the test results. The animals were observed continuously for 7 days after acute administration.
During the experiment, all animals were under detailed and continuous clinical observation for […], twice a day (10:00 am, 16:00 pm) after administration. The observation included but not limited to: skin, hair, ear, nose, mouth, chest, abdomen, external genitalia, limbs and feet, respiratory and circulatory system, autonomic effects (such as salivation), nervous system (such as tremor, convulsions, stress response and abnormal behavior).
The body of animals was weighed before administration, and then weighed and recorded at the same time each day.
The observation results, animal body weight, and animal survival after one week of administration were recorded in detail every day.

[1] = system: HCT-116 colon cancer xenografts; test: Tumor growth inhibition of HCT-116 colon cancer xenografts in tumor-bearing nude mice (tumor volume, TGI %, RTV, T/C %); format: in vivo, Balb/c Nude mice; settings: for T/C % (relative tumor proliferation rate): single-dose intraperitoneal, dosage mg/kg: G3, G4, G8 350, G5, G9 325, G6 300, G7 250;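 for T/C % (relative tumor proliferation rate): control C is the vehicle-treated model control group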
In short: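 Tumors in HCT-116-inoculated nude mice were sized three times weekly by diameter, with volume V=3/4π(D/2)^3. Significance set at P<0.05.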

[2] = In short: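 Test compounds formulated in ethanol:Cremophor EL:saline (5:5:90), vehicle alone as control, in HCT-116 subcutaneous xenografts in female Balb/c nudes (6/group, start 60–150 mm^3). Weight measured three times weekly, tumour weight at end; unpaired t-test on Mean±SEM data.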
[3] = Day 0, G3-G9 groups, single IP dose, Mean±SEM
[4] = Day 4, G3-G9 groups, single IP dose, Mean±SEM
[5] = Day 6, G3-G9 groups, single IP dose, Mean±SEM
[6] = Day 8, G3-G9 groups, single IP dose, Mean±SEM
[7] = Day 11, G3-G9 groups, single IP dose, Mean±SEM
[8] = Day 13, G3-G9 groups, single IP dose, Mean±SEM
[9] = Day 15, G3-G9 groups, single IP dose, Mean±SEM
[10] = Day 18, G3-G9 groups, single IP dose, Mean±SEM
[11] = Day 20, G3-G9 groups, single IP dose, Mean±SEM
[12] = Day 22, G3-G9 groups, single IP dose, Mean±SEM

For `O=C(Nc1nc(=O)n([C@@H]2O[C@H](CO)[C@@H](O)C2(F)F)cc1Br)OCc1ccccc1` [Compound G7, 5-Br-4-N-(carboxybenzyl)-2′-deoxy-2′,2′-difluorocytidine], the “dose that could be tolerated (maximum tolerated dose, MTD)” value (ICR mice) was 200 mg/kg, the “Day 0 (RTV)” value [1, 3] was 1.00 ± 0.00 and the “Tumor volume, Day 0” value [1, 3] was 133.56 ± 10.23 mm^3. The “T/C % (relative tumor proliferation rate)” value ([1]; Day 0) was 0.00%, the “Day 4 (TGI %)” value ([1]; Day 4, G3-G9 groups, single IP dose) was 53.12% and the “Day 4 (RTV)” value [1, 4] was 0.92 ± 0.08. The “Tumor volume, Day 4” value [1, 4] was 124.90 ± 18.89* mm^3, the “T/C % (relative tumor proliferation rate)” value ([1]; Day 4) was 48.99% and the “Day 6 (TGI %)” value ([1]; Day 6, G3-G9 groups, single IP dose) was 78.40%. For the same compound, the “Day 6 (RTV)” value [1, 5] was 0.66 ± 0.12, the “Tumor volume, Day 6” value [1, 5] was 91.30 ± 21.79** mm^3 and the “T/C % (relative tumor proliferation rate)” value ([1]; Day 6) was 22.02%. For the same compound, the “Day 8 (TGI %)” value ([1]; Day 8, G3-G9 groups, single IP dose) was 82.62%, the “Day 8 (RTV)” value [1, 6] was 0.66 ± 0.12 and the “Tumor volume, Day 8” value [1, 6] was 91.30 ± 21.79*** mm^3. For the same compound, the “T/C % (relative tumor proliferation rate)” value ([1]; Day 8) was 17.67%, the “tumor inhibition effect” value ([1]; Day 8 to Day 13 after single-dose intraperitoneal administration) was “good tumor inhibition effect” and the “Day 11 (TGI %)” value ([1]; Day 11, G3-G9 groups, single IP dose) was 81.27%. For the same compound, the “Day 11 (RTV)” value [1, 7] was 1.10 ± 0.23, the “Tumor volume, Day 11” value [1, 7] was 150.60 ± 38.77** mm^3 and the “T/C % (relative tumor proliferation rate)” value ([1]; Day 11) was 18.54%. For the same compound, the “Day 13 (TGI %)” value ([1]; Day 13, G3-G9 groups, single IP dose) was 80.80%, the “Day 13 (RTV)” value [1, 8] was 1.66 ± 0.10 and the “Tumor volume, Day 13” value [1, 8] was 222.86 ± 25.56** mm^3. The “T/C % (relative tumor proliferation rate)” value ([1]; Day 13) was 19.33%, the “Day 15 (TGI %)” value ([1]; Day 15, G3-G9 groups, single IP dose) was 72.81% and the “Day 15 (RTV)” value [1, 9] was 2.91 ± 0.35. The “Tumor volume, Day 15” value [1, 9] was 384.06 ± 36.79* mm^3, the “T/C % (relative tumor proliferation rate)” value ([1]; Day 15) was 27.80% and the “Day 18 (TGI %)” value ([1]; Day 18, G3-G9 groups, single IP dose) was 65.62%. The “Day 18 (RTV)” value [1, 10] was 4.86 ± 0.65, the “Tumor volume, Day 18” value [1, 10] was 636.39 ± 30.26* mm^3 and the “T/C % (relative tumor proliferation rate)” value ([1]; Day 18) was 35.32%. For the same compound, the “Day 20 (TGI %)” value ([1]; Day 20, G3-G9 groups, single IP dose) was 51.28%, the “Day 20 (RTV)” value [1, 11] was 7.99 ± 1.70 and the “Tumor volume, Day 20” value [1, 11] was 1032.60 ± 127.82 mm^3. For the same compound, the “T/C % (relative tumor proliferation rate)” value ([1]; Day 20) was 50.40%, the “Day 22 (TGI %)” value ([1]; Day 22, G3-G9 groups, single IP dose) was 44.07% and the “Day 22 (RTV)” value [1, 12] was 11.40 ± 2.93. For the same compound, the “Tumor volume, Day 22” value [1, 12] was 1462.80 ± 246.74 mm^3, the “T/C % on Day 22” value ([1]; Day 22, G4 350 mg/kg, G5 325 mg/kg, G7 250 mg/kg, single IP) was 58.62% and the “T/C % (relative tumor proliferation rate)” value ([1]; Day 22) was 58.62%. The “relative tumor volume compared with the model control group” value ([1]; G4 and G5 Day 4 to Day 18, G7 Day 4 to Day 15 (p<0.05-0.01), G9 only Day 4 (p<0.05)) was “reduced significantly”, the “maximum value of TGI %” value ([1]; day of maximum: G3 Day 8, G4 Day 11, G5 Day 11, G9 Day 4, G7 Day 8, single IP) was 82.62% and the “minimum value of T/C %” value ([1]; day of minimum: G4 Day 13, G5 Day 11, G7 Day 8, single IP) was 17.67%. For the same compound, the “Weight change rate, Day 0” value [2, 3] was 0.00 ± 0.00%, the “Weight of mice, Day 0” value [2, 3] was 21.63 ± 1.17 g and the “weights of animals on Day 4 after administration” value ([2]; Day 4 (G7: Day 4 and Day 6), p<0.05) was “significantly reduced”. For the same compound, the “Weight change rate, Day 4” value [2, 4] was −12.28 ± 4.78 %, the “Weight of mice, Day 4” value [2, 4] was 18.87 ± 0.09 g and the “weight loss rate on Day 4 after administration” value ([2]; Day 4, G4 350 mg/kg, G5 325 mg/kg, G7 250 mg/kg, single IP) was 12.28±4.78%. The “Weight change rate, Day 6” value [2, 5] was −4.39 ± 3.60 %, the “Weight of mice, Day 6” value [2, 5] was 20.60 ± 0.32 g and the “weight loss rate on Day 6 after administration” value ([2]; Day 6, G7 250 mg/kg, single IP) was 4.39±3.6%. For the same compound, the “Weight change rate, Day 8” value [2, 6] was −1.24 ± 2.80%, the “Weight of mice, Day 8” value [2, 6] was 21.30 ± 0.55 g and the “Weight change rate, Day 11” value [2, 7] was 1.86 ± 3.24%. The “Weight of mice, Day 11” value [2, 7] was 21.97 ± 0.59 g, the “Weight change rate, Day 13” value [2, 8] was 5.62 ± 2.15% and the “Weight of mice, Day 13” value [2, 8] was 22.80 ± 0.76 g. For the same compound, the “Weight change rate, Day 15” value [2, 9] was 7.71 ± 1.47%, the “Weight of mice, Day 15” value [2, 9] was 23.27 ± 0.93 g and the “Weight change rate, Day 18” value [2, 10] was 6.51 ± 2.30%. For the same compound, the “Weight of mice, Day 18” value [2, 10] was 23.00 ± 0.90 g, the “Weight change rate, Day 20” value [2, 11] was 5.54 ± 2.07% and the “Weight of mice, Day 20” value [2, 11] was 22.80 ± 1.00 g. The “Weight change rate, Day 22” value [2, 12] was 4.65 ± 2.51%, the “Weight of mice, Day 22” value [2, 12] was 22.60 ± 0.95 g and the “Day 22 Mortality” value ([2]; Day 22, single IP dose (mg/kg)) was 0%. For the same compound, the clinical symptoms ([2]; after single IP dose, compared with model control group) was “no significant differences in clinical symptoms”.

— patent US10174067B2, “Type of cytidine derivative and application thereof” (priority 2014, dated 2019)
